Experimental data from patent publication US20240150339A1, “Compounds and Their Use as PDE4 Activators” (Mironid Limited, priority 2021, published 2024).

System: m-IMCD3 cells
Assay: Inhibition of PGE2-stimulated in vitro cyst formation in 3D culture of m-IMCD3 cells
Format: cell-based, mouse
Conditions: Mus musculus, mIMCD3, 144 h; 10 μM test compound; mean cyst area (%) compared to 100% for (DMSO + PGE2) and 0% for DMSO control; 100 nM PGE2; 6 days; read-out: % Cyst area after incubation with 10 μM test compound
In short: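 Mouse m-IMCD3 cells grown in 3D collagen I/Matrigel gels. From 18-24 h after plating, compound (0.1% DMSO) plus 100 nM PGE2 were added and replenished at 2-3 days. After 6 days, imaging gave mean cyst area, scaled to 100% for DMSO+PGE2 and 0% for DMSO alone.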

## Cc1ncccc1-c1nc2ccc(C(=O)N[C@H]3CCOc4ccccc43)cc2s1 [Example 7, (S)-N-(chroman-4-yl)-2-(2-methylpyridin-3-yl)benzo[d]thiazole-6-carboxamide]
  activity at 10 µM: -7%
